Results published in the supplement of paper PMC10307832.

Experiments:
Assay in all cases: relative viability (nuclei count vs DMSO), 5 days (fraction); higher = more cells survive
[1] = tested on: ABC-1
How it was run: (§1)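 Lung cancer cell lines in 1536-well plates got either a single drug or a fixed anchor-drug dose together with five library-drug doses (not always all listed) in √10 steps, by pin tool, on the day after seeding. Nuclei were counted after 5 days, and relative viability is the treated-to-vehicle ratio of nuclei counts. Values are medians of duplicate plates.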

[2] = tested on: SK-MES-1
How it was run: as §1

[3] = tested on: NCI-H1355
How it was run: as §1

[4] = tested on: NCI-H322M
How it was run: as §1

[5] = tested on: NCI-H1915
How it was run: as §1

[6] = tested on: NCI-H2085
How it was run: as §1

[7] = tested on: NCI-H2087
How it was run: as §1

[8] = tested on: CAL-12T
How it was run: as §1

[9] = tested on: NCI-H1395
How it was run: as §1

[10] = tested on: A-427
How it was run: as §1

[11] = tested on: PC-14
How it was run: as §1

[12] = tested on: LCLC-97TM1
How it was run: as §1

[13] = tested on: NCI-H838
How it was run: as §1

[14] = tested on: UMC-11
How it was run: as §1

[15] = tested on: NCI-H358
How it was run: as §1

[16] = tested on: H3255
How it was run: as §1

[17] = tested on: PC-3 [JPC-3]
How it was run: as §1

[18] = tested on: NCI-H1666
How it was run: as §1

[19] = tested on: NCI-H1792
How it was run: as §1

[20] = tested on: NCI-H2228
How it was run: as §1

[21] = tested on: LK-2
How it was run: as §1

[22] = tested on: NCI-H1651
How it was run: as §1

[23] = tested on: NCI-H661
How it was run: as §1

SMILES: Cc1cnc(-c2cnc(NCCNc3ccc(C#N)cn3)nc2-c2ccc(Cl)cc2Cl)[nH]1 + C[C@]1(O)C[C@@H](c2nc(-c3ccc4ccc(-c5ccccc5)nc4c3)c3c(N)nccn32)C1 [Linsitinib] (partner 1 µM)
- relative viability ([1]; first compound 0.08 µM): 1.04
- relative viability ([1]; first compound 0.253 µM): 0.682
- relative viability ([1]; first compound 0.8 µM): 0.839
- relative viability ([1]; first compound 2.53 µM): 0.593
- relative viability ([2]; first compound 0.08 µM): 1.2
- relative viability ([2]; first compound 0.253 µM): 1.03
- relative viability ([2]; first compound 0.8 µM): 1.05
- relative viability ([2]; first compound 2.53 µM): 1.04
- relative viability ([3]; first compound 0.08 µM): 0.88
- relative viability ([3]; first compound 0.253 µM): 0.841
- relative viability ([3]; first compound 0.8 µM): 0.765
- relative viability ([3]; first compound 2.53 µM): 0.732
- relative viability ([4]; first compound 0.08 µM): 0.99
- relative viability ([4]; first compound 0.253 µM): 0.853
- relative viability ([4]; first compound 0.8 µM): 0.874
- relative viability ([4]; first compound 2.53 µM): 0.947
- relative viability ([5]; first compound 0.08 µM): 1.08
- relative viability ([5]; first compound 0.8 µM): 1.11
- relative viability ([5]; first compound 2.53 µM): 1.08
- relative viability ([6]; first compound 0.08 µM): 0.986
- relative viability ([6]; first compound 0.253 µM): 0.932
- relative viability ([6]; first compound 0.8 µM): 0.919
- relative viability ([6]; first compound 2.53 µM): 0.882
- relative viability ([7]; first compound 0.08 µM): 0.907
- relative viability ([7]; first compound 0.253 µM): 0.978
- relative viability ([7]; first compound 0.8 µM): 0.987
- relative viability ([7]; first compound 2.53 µM): 1.02
- relative viability ([8]; first compound 0.08 µM): 0.806
- relative viability ([8]; first compound 0.253 µM): 0.787
- relative viability ([8]; first compound 0.8 µM): 0.841
- relative viability ([8]; first compound 2.53 µM): 0.837
- relative viability ([9]; first compound 0.08 µM): 1.17
- relative viability ([9]; first compound 0.253 µM): 0.972
- relative viability ([9]; first compound 0.8 µM): 1.04
- relative viability ([9]; first compound 2.53 µM): 1
- relative viability ([10]; first compound 0.08 µM): 1.09
- relative viability ([10]; first compound 0.253 µM): 1.12
- relative viability ([10]; first compound 0.8 µM): 1.11
- relative viability ([10]; first compound 2.53 µM): 1.15
- relative viability ([11]; first compound 0.08 µM): 0.946
- relative viability ([11]; first compound 0.253 µM): 0.896
- relative viability ([11]; first compound 0.8 µM): 0.913
- relative viability ([11]; first compound 2.53 µM): 0.834
- relative viability ([12]; first compound 0.08 µM): 0.206
- relative viability ([12]; first compound 0.253 µM): 0.177
- relative viability ([12]; first compound 0.8 µM): 0.172
- relative viability ([12]; first compound 2.53 µM): 0.208
- relative viability ([13]; first compound 0.08 µM): 1.02
- relative viability ([13]; first compound 0.253 µM): 1.02
- relative viability ([13]; first compound 0.8 µM): 1.25
- relative viability ([13]; first compound 2.53 µM): 1.51
- relative viability ([14]; first compound 0.08 µM): 1.04
- relative viability ([14]; first compound 0.253 µM): 1
- relative viability ([14]; first compound 0.8 µM): 1
- relative viability ([14]; first compound 2.53 µM): 0.985
- relative viability ([15]; first compound 0.08 µM): 0.833
- relative viability ([15]; first compound 0.253 µM): 0.561
- relative viability ([15]; first compound 0.8 µM): 0.696
- relative viability ([15]; first compound 2.53 µM): 0.618
- relative viability ([16]; first compound 0.08 µM): 1.15
- relative viability ([16]; first compound 0.253 µM): 0.884
- relative viability ([16]; first compound 0.8 µM): 0.928
- relative viability ([16]; first compound 2.53 µM): 0.944
- relative viability ([17]; first compound 0.08 µM): 0.93
- relative viability ([17]; first compound 0.253 µM): 0.858
- relative viability ([17]; first compound 0.8 µM): 0.943
- relative viability ([17]; first compound 2.53 µM): 0.964
- relative viability ([18]; first compound 0.08 µM): 0.926
- relative viability ([18]; first compound 0.253 µM): 0.868
- relative viability ([18]; first compound 0.8 µM): 0.921
- relative viability ([18]; first compound 2.53 µM): 0.976
- relative viability ([19]; first compound 0.08 µM): 0.683
- relative viability ([19]; first compound 0.253 µM): 0.435
- relative viability ([19]; first compound 0.8 µM): 0.464
- relative viability ([19]; first compound 2.53 µM): 0.524
- relative viability ([20]; first compound 0.08 µM): 0.678
- relative viability ([20]; first compound 0.253 µM): 0.637
- relative viability ([20]; first compound 0.8 µM): 0.597
- relative viability ([20]; first compound 2.53 µM): 0.481
- relative viability ([21]; first compound 0.08 µM): 0.62
- relative viability ([21]; first compound 0.253 µM): 0.476
- relative viability ([21]; first compound 0.8 µM): 0.489
- relative viability ([21]; first compound 2.53 µM): 0.789
- relative viability ([22]; first compound 0.08 µM): 1.22
- relative viability ([22]; first compound 0.253 µM): 0.893
- relative viability ([22]; first compound 0.8 µM): 1.04
- relative viability ([22]; first compound 2.53 µM): 1.06
- relative viability ([23]; first compound 0.08 µM): 0.775
- relative viability ([23]; first compound 0.253 µM): 0.628
- relative viability ([23]; first compound 0.8 µM): 0.448
- relative viability ([23]; first compound 2.53 µM): 0.63

SMILES: Cc1cnc(-c2cnc(NCCNc3ccc(C#N)cn3)nc2-c2ccc(Cl)cc2Cl)[nH]1 + N=C(N)NC(=N)NCCc1ccccc1 [Phenformin] (partner 250 µM)
- relative viability ([1]; first compound 0.08 µM): 0.259
- relative viability ([1]; first compound 0.253 µM): 0.246
- relative viability ([1]; first compound 0.8 µM): 0.271
- relative viability ([1]; first compound 2.53 µM): 0.195
- relative viability ([2]; first compound 0.08 µM): 0.643
- relative viability ([2]; first compound 0.253 µM): 0.648
- relative viability ([2]; first compound 0.8 µM): 0.72
- relative viability ([2]; first compound 2.53 µM): 0.584
- relative viability ([3]; first compound 0.08 µM): 0.476
- relative viability ([3]; first compound 0.253 µM): 0.45
- relative viability ([3]; first compound 0.8 µM): 0.479
- relative viability ([3]; first compound 2.53 µM): 0.446
- relative viability ([4]; first compound 0.08 µM): 0.815
- relative viability ([4]; first compound 0.253 µM): 0.725
- relative viability ([4]; first compound 0.8 µM): 0.753
- relative viability ([4]; first compound 2.53 µM): 0.931
- relative viability ([5]; first compound 0.08 µM): 0.378
- relative viability ([5]; first compound 0.253 µM): 0.346
- relative viability ([5]; first compound 0.8 µM): 0.356
- relative viability ([5]; first compound 2.53 µM): 0.389
- relative viability ([6]; first compound 0.08 µM): 0.735
- relative viability ([6]; first compound 0.253 µM): 0.688
- relative viability ([6]; first compound 0.8 µM): 0.686
- relative viability ([6]; first compound 2.53 µM): 0.691
- relative viability ([7]; first compound 0.08 µM): 0.571
- relative viability ([7]; first compound 0.253 µM): 0.379
- relative viability ([7]; first compound 0.8 µM): 0.442
- relative viability ([7]; first compound 2.53 µM): 0.329
- relative viability ([8]; first compound 0.08 µM): 0.655
- relative viability ([8]; first compound 0.253 µM): 0.511
- relative viability ([8]; first compound 0.8 µM): 0.597
- relative viability ([8]; first compound 2.53 µM): 0.579
- relative viability ([9]; first compound 0.08 µM): 0.483
- relative viability ([9]; first compound 0.253 µM): 0.424
- relative viability ([9]; first compound 0.8 µM): 0.45
- relative viability ([9]; first compound 2.53 µM): 0.431
- relative viability ([10]; first compound 0.08 µM): 0.307
- relative viability ([10]; first compound 0.253 µM): 0.327
- relative viability ([10]; first compound 0.8 µM): 0.378
- relative viability ([10]; first compound 2.53 µM): 0.342
- relative viability ([11]; first compound 0.08 µM): 0.586
- relative viability ([11]; first compound 0.253 µM): 0.413
- relative viability ([11]; first compound 0.8 µM): 0.568
- relative viability ([11]; first compound 2.53 µM): 0.421
- relative viability ([12]; first compound 0.08 µM): 0.481
- relative viability ([12]; first compound 0.8 µM): 0.535
- relative viability ([12]; first compound 2.53 µM): 0.462
- relative viability ([13]; first compound 0.08 µM): 0.634
- relative viability ([13]; first compound 0.253 µM): 0.601
- relative viability ([13]; first compound 0.8 µM): 0.594
- relative viability ([13]; first compound 2.53 µM): 0.709
- relative viability ([14]; first compound 0.08 µM): 0.339
- relative viability ([14]; first compound 0.253 µM): 0.315
- relative viability ([14]; first compound 0.8 µM): 0.352
- relative viability ([14]; first compound 2.53 µM): 0.376
- relative viability ([15]; first compound 0.08 µM): 0.34
- relative viability ([15]; first compound 0.253 µM): 0.307
- relative viability ([15]; first compound 0.8 µM): 0.336
- relative viability ([15]; first compound 2.53 µM): 0.299
- relative viability ([16]; first compound 0.08 µM): 0.409
- relative viability ([16]; first compound 0.253 µM): 0.342
- relative viability ([16]; first compound 0.8 µM): 0.317
- relative viability ([16]; first compound 2.53 µM): 0.349
- relative viability ([17]; first compound 0.08 µM): 0.478
- relative viability ([17]; first compound 0.253 µM): 0.474
- relative viability ([17]; first compound 0.8 µM): 0.508
- relative viability ([17]; first compound 2.53 µM): 0.473
- relative viability ([18]; first compound 0.08 µM): 0.548
- relative viability ([18]; first compound 0.253 µM): 0.563
- relative viability ([18]; first compound 0.8 µM): 0.553
- relative viability ([18]; first compound 2.53 µM): 0.572
- relative viability ([19]; first compound 0.08 µM): 0.464
- relative viability ([19]; first compound 0.8 µM): 0.329
- relative viability ([19]; first compound 2.53 µM): 0.391
- relative viability ([20]; first compound 0.08 µM): 0.256
- relative viability ([20]; first compound 0.253 µM): 0.357
- relative viability ([20]; first compound 0.8 µM): 0.366
- relative viability ([20]; first compound 2.53 µM): 0.228
- relative viability ([21]; first compound 0.08 µM): 0.549
- relative viability ([21]; first compound 0.253 µM): 0.501
- relative viability ([21]; first compound 0.8 µM): 0.379
- relative viability ([21]; first compound 2.53 µM): 0.641
- relative viability ([22]; first compound 0.08 µM): 0.383
- relative viability ([22]; first compound 0.253 µM): 0.494
- relative viability ([22]; first compound 0.8 µM): 0.32
- relative viability ([22]; first compound 2.53 µM): 0.324
- relative viability ([23]; first compound 0.08 µM): 0.298
- relative viability ([23]; first compound 0.253 µM): 0.295
- relative viability ([23]; first compound 0.8 µM): 0.287
- relative viability ([23]; first compound 2.53 µM): 0.314
